# In article PMC8120209, “Longitudinal evaluation of a novel BChE PET tracer as an early in vivo biomarker in the brain of a mouse model for Alzheimer disease” (Theranostics, 2021):
# Legend:
# Assay in all cases: biochemical
# N muscle-type (h) = target: T1, N muscle-type (h) (Homo sapiens, UniProt P02708); parameters: Eurofins SafetyScreen44 radioligand displacement, inhibition of control specific binding; conditions: read-out: % Inhibition of Control Specific Binding, Mean
# T1 construct: gene CHRNA1
# M2 (h) = target: T2, M2 (h) (Homo sapiens, UniProt P08172); parameters: Eurofins SafetyScreen44 radioligand displacement, inhibition of control specific binding; conditions: read-out: % Inhibition of Control Specific Binding, Mean
# T2 construct: gene CHRM2
# δ (DOP) (h) = target: T3, δ (DOP) (h) (Homo sapiens, UniProt P41143); parameters: Eurofins SafetyScreen44 radioligand displacement, inhibition of control specific binding; conditions: read-out: % Inhibition of Control Specific Binding, Mean
# T3 construct: gene OPRD1
# PDE4D2 (h) = target: T4, PDE4D2 (h) (Homo sapiens, UniProt Q08499); parameters: Eurofins SafetyScreen44 enzyme assays, inhibition of control specific activity; conditions: read-out: % Inhibition of Control Values, Mean
# T4 construct: gene PDE4D; isoform PDE4D2
# T4 sequence (Q08499 whole entry, canonical isoform): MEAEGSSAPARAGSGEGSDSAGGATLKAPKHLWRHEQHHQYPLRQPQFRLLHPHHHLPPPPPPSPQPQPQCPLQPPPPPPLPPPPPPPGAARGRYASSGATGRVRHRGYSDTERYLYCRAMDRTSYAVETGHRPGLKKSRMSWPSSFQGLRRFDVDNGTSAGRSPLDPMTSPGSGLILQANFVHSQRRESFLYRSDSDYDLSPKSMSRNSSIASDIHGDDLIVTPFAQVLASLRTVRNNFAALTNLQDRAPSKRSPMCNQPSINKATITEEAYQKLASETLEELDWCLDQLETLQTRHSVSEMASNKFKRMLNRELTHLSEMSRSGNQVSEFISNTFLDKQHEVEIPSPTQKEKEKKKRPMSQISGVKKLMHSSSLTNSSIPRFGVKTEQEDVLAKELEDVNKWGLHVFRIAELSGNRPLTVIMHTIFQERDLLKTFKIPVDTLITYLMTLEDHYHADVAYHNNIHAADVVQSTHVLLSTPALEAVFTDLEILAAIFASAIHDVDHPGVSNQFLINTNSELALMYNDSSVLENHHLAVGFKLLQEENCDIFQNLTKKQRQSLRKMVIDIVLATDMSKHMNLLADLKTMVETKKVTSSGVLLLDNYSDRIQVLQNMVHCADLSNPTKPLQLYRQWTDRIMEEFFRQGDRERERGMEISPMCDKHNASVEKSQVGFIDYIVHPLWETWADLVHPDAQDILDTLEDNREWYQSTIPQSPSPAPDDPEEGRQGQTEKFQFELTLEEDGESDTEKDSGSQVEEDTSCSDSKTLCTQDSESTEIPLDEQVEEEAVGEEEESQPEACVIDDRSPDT
# [1] = target: T5, MAO-A (antagonist radioligand) (Rattus norvegicus, UniProt P21396); conditions: read-out: % Inhibition of Control Specific Binding Mean
# T5 construct: gene Maoa
# T5 sequence (P21396 whole entry): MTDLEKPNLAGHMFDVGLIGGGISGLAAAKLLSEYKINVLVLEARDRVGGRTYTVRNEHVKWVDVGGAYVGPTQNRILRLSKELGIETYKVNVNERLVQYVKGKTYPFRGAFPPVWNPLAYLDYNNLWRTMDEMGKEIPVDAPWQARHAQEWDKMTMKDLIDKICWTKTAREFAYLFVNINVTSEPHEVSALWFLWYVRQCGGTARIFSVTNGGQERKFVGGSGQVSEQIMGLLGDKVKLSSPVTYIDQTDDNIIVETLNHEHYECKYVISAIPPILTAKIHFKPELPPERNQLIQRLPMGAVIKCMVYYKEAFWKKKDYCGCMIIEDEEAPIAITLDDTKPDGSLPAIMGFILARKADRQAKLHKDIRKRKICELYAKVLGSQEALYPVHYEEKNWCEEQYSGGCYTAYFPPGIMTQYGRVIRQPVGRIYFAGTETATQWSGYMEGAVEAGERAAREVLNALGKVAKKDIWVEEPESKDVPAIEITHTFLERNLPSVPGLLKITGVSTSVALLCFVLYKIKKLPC
# [2] = target: AR(h) (agonist radioligand) (Homo sapiens, UniProt P10275); conditions: read-out: % Inhibition of Control Specific Binding Mean
# [3] = target: T6, 5-HT1B (antagonist radioligand) (Rattus norvegicus, UniProt P28564); conditions: read-out: % Inhibition of Control Specific Binding Mean
# T6 construct: gene Htr1b
# [4] = target: T7, 5-HT1D (agonist radioligand) (Rattus norvegicus, UniProt P28565); conditions: read-out: % Inhibition of Control Specific Binding Mean
# T7 construct: gene Htr1d
# T7 sequence (P28565 whole entry): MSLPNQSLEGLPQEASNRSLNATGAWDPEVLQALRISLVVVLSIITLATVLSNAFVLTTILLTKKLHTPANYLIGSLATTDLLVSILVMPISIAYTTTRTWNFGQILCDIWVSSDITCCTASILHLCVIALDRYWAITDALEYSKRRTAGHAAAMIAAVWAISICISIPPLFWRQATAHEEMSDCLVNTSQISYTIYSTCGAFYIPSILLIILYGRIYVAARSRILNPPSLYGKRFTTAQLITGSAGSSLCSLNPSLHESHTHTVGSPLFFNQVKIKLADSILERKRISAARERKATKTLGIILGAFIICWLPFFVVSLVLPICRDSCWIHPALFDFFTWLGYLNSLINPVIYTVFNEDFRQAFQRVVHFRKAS
# N neuronal α7 (h) = target: T8, N neuronal α7 (h) (Homo sapiens, UniProt P36544); parameters: Eurofins SafetyScreen44 radioligand displacement, inhibition of control specific binding; conditions: read-out: % Inhibition of Control Specific Binding, Mean
# T8 construct: gene CHRNA7
# 5-HT3(h) = target: T9, 5-HT3(h) (Homo sapiens, UniProt P46098); parameters: Eurofins SafetyScreen44 radioligand displacement, inhibition of control specific binding; conditions: read-out: % Inhibition of Control Specific Binding, Mean
# T9 construct: gene HTR3A
# T9 sequence (P46098 whole entry): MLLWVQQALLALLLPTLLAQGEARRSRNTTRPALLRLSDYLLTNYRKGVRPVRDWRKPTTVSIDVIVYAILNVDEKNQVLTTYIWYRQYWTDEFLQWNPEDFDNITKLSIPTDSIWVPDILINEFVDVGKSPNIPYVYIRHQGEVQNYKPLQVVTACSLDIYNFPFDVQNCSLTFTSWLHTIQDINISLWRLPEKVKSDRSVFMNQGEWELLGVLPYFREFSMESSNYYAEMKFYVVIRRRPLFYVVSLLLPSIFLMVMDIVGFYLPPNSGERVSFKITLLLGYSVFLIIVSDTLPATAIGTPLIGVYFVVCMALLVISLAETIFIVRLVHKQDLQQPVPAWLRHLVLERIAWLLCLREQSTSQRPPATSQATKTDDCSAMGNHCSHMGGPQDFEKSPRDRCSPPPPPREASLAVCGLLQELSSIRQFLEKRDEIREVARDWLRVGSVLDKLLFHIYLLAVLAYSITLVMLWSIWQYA
# A2A(h) = target: T10, A2A(h) (Homo sapiens, UniProt P29274); parameters: Eurofins SafetyScreen44 radioligand displacement, inhibition of control specific binding; conditions: read-out: % Inhibition of Control Specific Binding, Mean
# T10 construct: gene ADORA2A
# T10 sequence (P29274 whole entry): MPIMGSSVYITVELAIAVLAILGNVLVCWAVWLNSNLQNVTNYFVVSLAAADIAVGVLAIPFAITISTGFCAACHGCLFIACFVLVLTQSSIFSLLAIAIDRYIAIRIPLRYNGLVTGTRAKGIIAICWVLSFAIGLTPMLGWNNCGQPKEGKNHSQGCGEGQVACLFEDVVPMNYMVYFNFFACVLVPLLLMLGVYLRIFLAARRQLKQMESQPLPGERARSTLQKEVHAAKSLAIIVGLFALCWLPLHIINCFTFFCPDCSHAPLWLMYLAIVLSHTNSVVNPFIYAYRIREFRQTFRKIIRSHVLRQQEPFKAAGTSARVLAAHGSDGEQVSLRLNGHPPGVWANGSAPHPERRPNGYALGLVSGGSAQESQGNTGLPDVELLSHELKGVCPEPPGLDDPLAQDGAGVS
# 5-HT7 (h) = target: T11, 5-HT7 (h) (Homo sapiens, UniProt P34969); parameters: Eurofins SafetyScreen44 radioligand displacement, inhibition of control specific binding; conditions: read-out: % Inhibition of Control Specific Binding, Mean
# T11 construct: gene HTR7
# T11 sequence (P34969 whole entry): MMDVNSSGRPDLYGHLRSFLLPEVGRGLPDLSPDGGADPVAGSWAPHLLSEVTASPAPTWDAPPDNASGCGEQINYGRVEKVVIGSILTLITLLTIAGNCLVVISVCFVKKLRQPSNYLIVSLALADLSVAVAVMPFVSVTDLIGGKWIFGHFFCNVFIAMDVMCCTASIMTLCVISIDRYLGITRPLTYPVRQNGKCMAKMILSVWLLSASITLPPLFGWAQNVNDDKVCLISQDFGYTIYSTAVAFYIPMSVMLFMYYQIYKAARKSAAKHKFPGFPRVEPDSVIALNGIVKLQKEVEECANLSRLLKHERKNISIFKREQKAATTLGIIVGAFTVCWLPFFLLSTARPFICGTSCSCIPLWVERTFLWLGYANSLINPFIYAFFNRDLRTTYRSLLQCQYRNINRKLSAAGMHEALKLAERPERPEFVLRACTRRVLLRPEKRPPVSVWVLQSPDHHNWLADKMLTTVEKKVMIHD
# 5-HT5a(h) = target: T12, 5-HT5a(h) (Homo sapiens, UniProt P47898); parameters: Eurofins SafetyScreen44 radioligand displacement, inhibition of control specific binding; conditions: read-out: % Inhibition of Control Specific Binding, Mean
# T12 construct: gene HTR5A
# T12 sequence (P47898 whole entry): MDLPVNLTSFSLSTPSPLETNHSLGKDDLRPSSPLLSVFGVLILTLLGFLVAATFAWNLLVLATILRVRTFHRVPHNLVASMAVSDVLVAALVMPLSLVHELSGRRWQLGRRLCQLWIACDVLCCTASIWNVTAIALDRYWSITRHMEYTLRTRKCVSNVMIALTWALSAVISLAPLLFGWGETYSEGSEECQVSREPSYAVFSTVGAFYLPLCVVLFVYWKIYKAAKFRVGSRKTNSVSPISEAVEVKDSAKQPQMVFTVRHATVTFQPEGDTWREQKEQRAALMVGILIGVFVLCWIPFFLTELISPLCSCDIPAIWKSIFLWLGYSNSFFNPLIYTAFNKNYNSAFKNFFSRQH
# CB1(h) = target: T13, CB1(h) (Homo sapiens, UniProt P21554); parameters: Eurofins SafetyScreen44 radioligand displacement, inhibition of control specific binding; conditions: read-out: % Inhibition of Control Specific Binding, Mean
# T13 construct: gene CNR1
# COX2(h) = target: T14, COX2(h) (Homo sapiens, UniProt P35354); parameters: Eurofins SafetyScreen44 enzyme assays, inhibition of control specific activity; conditions: read-out: % Inhibition of Control Values, Mean
# T14 construct: gene PTGS2
# GR (h) = target: T15, GR (h) (Homo sapiens, UniProt P04150); parameters: Eurofins SafetyScreen44 radioligand displacement, inhibition of control specific binding; conditions: read-out: % Inhibition of Control Specific Binding, Mean
# T15 construct: gene NR3C1
# 5-HT transporter (h) = target: T16, 5-HT transporter (h) (Homo sapiens, UniProt P31645); parameters: Eurofins SafetyScreen44 radioligand displacement, inhibition of control specific binding; conditions: read-out: % Inhibition of Control Specific Binding, Mean
# T16 construct: gene SLC6A4
# β2(h) = target: T17, β2(h) (Homo sapiens, UniProt P07550); parameters: Eurofins SafetyScreen44 radioligand displacement, inhibition of control specific binding; conditions: read-out: % Inhibition of Control Specific Binding, Mean
# T17 construct: gene ADRB2
# T17 sequence (P07550 whole entry): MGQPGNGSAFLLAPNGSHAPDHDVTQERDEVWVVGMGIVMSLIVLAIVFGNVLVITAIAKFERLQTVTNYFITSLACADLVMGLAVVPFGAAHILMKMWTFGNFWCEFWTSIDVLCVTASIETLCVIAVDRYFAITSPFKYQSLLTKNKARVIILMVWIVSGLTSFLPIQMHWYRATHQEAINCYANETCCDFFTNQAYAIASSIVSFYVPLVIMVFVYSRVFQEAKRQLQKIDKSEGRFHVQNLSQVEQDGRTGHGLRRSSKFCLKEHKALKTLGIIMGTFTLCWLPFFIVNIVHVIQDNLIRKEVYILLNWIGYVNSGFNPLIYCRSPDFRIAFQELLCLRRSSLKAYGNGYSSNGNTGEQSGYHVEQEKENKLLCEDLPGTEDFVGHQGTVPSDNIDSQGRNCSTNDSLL
# COX1(h) = target: T18, COX1(h) (Homo sapiens, UniProt P23219); parameters: Eurofins SafetyScreen44 enzyme assays, inhibition of control specific activity; conditions: read-out: % Inhibition of Control Values, Mean
# T18 construct: gene PTGS1
# [5] = target: T19, norepinephrine transporter(h) (Homo sapiens, UniProt P23975); parameters: Eurofins SafetyScreen44 radioligand displacement, inhibition of control specific binding; conditions: read-out: % Inhibition of Control Specific Binding, Mean
# T19 construct: gene SLC6A2
# kappa (h) (KOP) = target: T20, kappa (h) (KOP) (Homo sapiens, UniProt P41145); parameters: Eurofins SafetyScreen44 radioligand displacement, inhibition of control specific binding; conditions: read-out: % Inhibition of Control Specific Binding, Mean
# T20 construct: gene OPRK1
# T20 sequence (P41145 whole entry): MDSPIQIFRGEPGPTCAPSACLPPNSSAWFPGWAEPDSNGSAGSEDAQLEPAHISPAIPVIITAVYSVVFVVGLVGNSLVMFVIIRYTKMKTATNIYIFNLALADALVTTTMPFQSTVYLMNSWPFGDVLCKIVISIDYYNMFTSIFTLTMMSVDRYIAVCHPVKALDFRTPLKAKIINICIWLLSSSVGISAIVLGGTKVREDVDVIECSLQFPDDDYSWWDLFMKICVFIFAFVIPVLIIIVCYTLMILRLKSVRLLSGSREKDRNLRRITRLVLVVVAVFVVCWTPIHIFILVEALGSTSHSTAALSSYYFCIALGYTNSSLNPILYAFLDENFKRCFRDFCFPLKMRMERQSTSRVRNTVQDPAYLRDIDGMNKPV
# dopamine transporter(h) = target: T21, dopamine transporter(h) (Homo sapiens, UniProt Q01959); parameters: Eurofins SafetyScreen44 radioligand displacement, inhibition of control specific binding; conditions: read-out: % Inhibition of Control Specific Binding, Mean
# T21 construct: gene SLC6A3
# T21 sequence (Q01959 whole entry): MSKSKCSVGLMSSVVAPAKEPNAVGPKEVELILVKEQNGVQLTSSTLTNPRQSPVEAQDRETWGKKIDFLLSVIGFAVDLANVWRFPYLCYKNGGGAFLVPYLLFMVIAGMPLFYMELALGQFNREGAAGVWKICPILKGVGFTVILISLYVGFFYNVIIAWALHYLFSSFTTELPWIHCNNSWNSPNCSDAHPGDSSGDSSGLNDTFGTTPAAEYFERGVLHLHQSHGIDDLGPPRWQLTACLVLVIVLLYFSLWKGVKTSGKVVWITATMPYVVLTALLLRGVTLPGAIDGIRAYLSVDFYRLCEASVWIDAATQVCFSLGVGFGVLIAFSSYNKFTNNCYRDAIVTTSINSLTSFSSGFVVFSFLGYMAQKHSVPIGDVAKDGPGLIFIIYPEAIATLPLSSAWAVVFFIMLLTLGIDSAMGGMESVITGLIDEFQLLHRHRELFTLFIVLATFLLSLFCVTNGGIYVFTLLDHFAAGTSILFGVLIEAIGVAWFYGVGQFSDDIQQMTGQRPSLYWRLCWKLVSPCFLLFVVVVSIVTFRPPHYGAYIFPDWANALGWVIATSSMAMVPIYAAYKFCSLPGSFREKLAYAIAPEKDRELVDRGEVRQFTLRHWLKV
# Lck kinase (h) = Lck kinase (h) (Homo sapiens, UniProt P06239); parameters: Eurofins SafetyScreen44 enzyme assays, inhibition of control specific activity; conditions: read-out: % Inhibition of Control Values, Mean
# 5-HT6 (h) = target: T22, 5-HT6 (h) (Homo sapiens, UniProt P50406); parameters: Eurofins SafetyScreen44 radioligand displacement, inhibition of control specific binding; conditions: read-out: % Inhibition of Control Specific Binding, Mean
# T22 construct: gene HTR6
# M4(h) = target: T23, M4(h) (Homo sapiens, UniProt P08173); parameters: Eurofins SafetyScreen44 radioligand displacement, inhibition of control specific binding; conditions: read-out: % Inhibition of Control Specific Binding, Mean
# T23 construct: gene CHRM4
# D1(h) = target: T24, D1(h) (Homo sapiens, UniProt P21728); parameters: Eurofins SafetyScreen44 radioligand displacement, inhibition of control specific binding; conditions: read-out: % Inhibition of Control Specific Binding, Mean
# T24 construct: gene DRD1
compound,measurement,setting,value
"COCCN(CC1CCCN(Cc2ccccc2)C1)S(=O)(=O)c1ccc2ccccc2c1 (racemic) [compound 4, (±)N-((1-benzylpiperidin-3-yl)methyl)-N-(2-methoxyethyl)naphthalene-2-sulfonamide]",inhibition at 10 µM,N muscle-type (h),23%
same,inhibition at 10 µM,M2 (h),85.7%
same,inhibition at 10 µM,δ (DOP) (h),32.8%
same,inhibition at 10 µM,PDE4D2 (h),-3.7%
same,inhibition at 10 µM,[1],-0.2%
same,inhibition at 10 µM,[2],-6.6%
same,inhibition at 10 µM,[3],-12.8%
same,inhibition at 10 µM,[4],33%
same,inhibition at 10 µM,N neuronal α7 (h),18.2%
same,inhibition at 10 µM,5-HT3(h),-2.7%
same,inhibition at 10 µM,A2A(h),20.5%
same,inhibition at 10 µM,5-HT7 (h),84.3%
same,inhibition at 10 µM,5-HT5a(h),42.5%
same,inhibition at 10 µM,CB1(h),-44.4%
same,inhibition at 10 µM,COX2(h),2.2%
same,inhibition at 10 µM,GR (h),4.7%
same,inhibition at 10 µM,5-HT transporter (h),12.7%
same,inhibition at 10 µM,β2(h),10.5%
same,inhibition at 10 µM,COX1(h),0.4%
same,inhibition at 10 µM,[5],34.1%
same,inhibition at 10 µM,kappa (h) (KOP),26.1%
same,inhibition at 10 µM,dopamine transporter(h),26%
same,inhibition at 10 µM,Lck kinase (h),52.7%
same,inhibition at 10 µM,5-HT6 (h),87.1%
same,inhibition at 10 µM,M4(h),63.2%
same,inhibition at 10 µM,D1(h),32.4%
